# According to ChEMBL document CHEMBL5537202, “Perspectives on Nuclear Magnetic Resonance Spectroscopy in Drug Discovery Research” (J Med Chem, 2024):
# Where a SMILES comes first, the peptide text is derived from it. Bridges are numbered along the chain shown (N, C = ends). [ ]: non-standard residue; d: D form. Trp(1-CH2COOH) = N[C@@H](Cc1cn(CC(=O)O)c2ccccc12)C(=O)O; Hyp = O=C(O)[C@@H]1C[C@@H](O)CN1; NMeNle = CCCC[C@H](NC)C(=O)O; NMeA = CN[C@@H](C)C(=O)O; Dab = NCC[C@H](N)C(=O)O; Dap = NC[C@H](N)C(=O)O; Sar = CNCC(=O)O
# Experiments:
# [1] = Binding affinity to Hsp90 (unknown origin) expressed in Escherichia coli BL21 (DE3) cells assessed as inhibition constant by NMR STD analysis; parameters: species or system Homo sapiens
# [2] = Binding affinity to human recombinant Hsp90 expressed in Escherichia coli BL21 (DE3) cells assessed as dissociation constant
# [3] = Binding affinity to Hsp90 (unknown origin) assessed as dissociation constant; parameters: species or system Homo sapiens
# [4] = Oral bioavailability in Beagle dog at 2 mg/kg; assay type: ADME, organism-based, Canis lupus familiaris; details: in vivo
# [5] = Oral bioavailability in mouse at 2 mg/kg; assay type: ADME, organism-based; details: in vivo
# [6] = Oral bioavailability in rat at 2 mg/kg by LC-MS/MS analysis; assay type: ADME, organism-based; details: in vivo
# [7] = Oral bioavailability in monkey at 5 mg/kg; assay type: ADME, organism-based, Macaca mulatta; details: rhesus monkey, in vivo
# [8] = molecular target: T1, Programmed cell death protein 1/Programmed cell death 1 ligand 1 (Homo sapiens, UniProt Q15116+Q9NZQ7); test: Inhibition of PD-1/PD-L1 (unknown origin) protein-protein interaction expressed in HEK293 cells by HTRF method; assay type: cell-based
# T1 sequence (Q15116 whole entry): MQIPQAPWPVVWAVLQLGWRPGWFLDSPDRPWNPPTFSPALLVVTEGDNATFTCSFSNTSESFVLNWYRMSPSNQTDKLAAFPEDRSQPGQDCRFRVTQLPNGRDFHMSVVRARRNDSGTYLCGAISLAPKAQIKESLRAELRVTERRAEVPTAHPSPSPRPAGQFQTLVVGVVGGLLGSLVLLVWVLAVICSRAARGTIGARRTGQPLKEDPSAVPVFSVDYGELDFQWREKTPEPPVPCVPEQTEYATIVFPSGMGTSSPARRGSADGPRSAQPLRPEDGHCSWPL
# T1 sequence (Q9NZQ7 whole entry): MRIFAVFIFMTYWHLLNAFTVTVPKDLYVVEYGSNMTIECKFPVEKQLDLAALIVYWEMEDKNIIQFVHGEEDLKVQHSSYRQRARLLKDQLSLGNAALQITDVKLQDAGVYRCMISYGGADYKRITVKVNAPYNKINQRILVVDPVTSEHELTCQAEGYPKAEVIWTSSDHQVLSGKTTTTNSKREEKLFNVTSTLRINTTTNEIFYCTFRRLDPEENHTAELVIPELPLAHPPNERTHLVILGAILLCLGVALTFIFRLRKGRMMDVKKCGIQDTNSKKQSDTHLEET
# [9] = molecular target: Stimulator of interferon genes protein (Homo sapiens, UniProt Q86WV6); test: Binding affinity to N-terminal His-tagged wild type human STING CTD ([…]) expressed in Escherichia coli BL21 (DE3) cells assessed as dissociation constant by NMR analysis
# Stimulator of interferon genes protein, sequence (Q86WV6 whole entry): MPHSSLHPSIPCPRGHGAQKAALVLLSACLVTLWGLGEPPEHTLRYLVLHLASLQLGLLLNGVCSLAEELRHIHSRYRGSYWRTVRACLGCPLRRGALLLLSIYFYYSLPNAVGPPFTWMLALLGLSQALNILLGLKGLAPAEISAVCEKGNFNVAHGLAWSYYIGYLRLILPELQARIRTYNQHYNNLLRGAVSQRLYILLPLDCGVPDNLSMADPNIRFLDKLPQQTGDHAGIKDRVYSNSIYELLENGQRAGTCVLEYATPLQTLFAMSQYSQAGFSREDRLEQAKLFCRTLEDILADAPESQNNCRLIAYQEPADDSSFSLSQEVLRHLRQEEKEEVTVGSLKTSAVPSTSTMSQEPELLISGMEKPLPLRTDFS
# [10] = Binding affinity to human Hsp90 expressed in Escherichia coli BL21 (DE3) cells assessed as inhibition constant
# [11] = molecular target: T1, Programmed cell death protein 1/Programmed cell death 1 ligand 1; test: Inhibition of PD-1/PD-L1 (unknown origin) protein-protein interaction incubated for 1 hr by HTRF assay; assay type: protein-complex assay
# [12] = molecular target: T1, Programmed cell death protein 1/Programmed cell death 1 ligand 1; test: Inhibition of PD-1/PD-L1 (unknown origin) interaction expressed in human HEK293T cells by HTRF analysis; assay type: cell-based
smiles,measurement,setting,value
O=C(NS(=O)(=O)c1ccc(NCCSc2ccccc2)c([N+](=O)[O-])c1)c1ccc(-c2ccc(F)cc2)cc1,Ki,[1],0.036 µM
O=C(O)c1ccc(-c2ccc(F)cc2)cc1,Kd,[2],300 µM
Oc1cccc2c1CCCC2,Kd,[2],4300 µM
Cc1cccc(C2c3[nH]c4ccccc4c3CC3C(=O)N(c4ccccc4C(=O)O)C(=O)N32)c1 (stereo not given),Kd,[3],177 µM
COc1cccc(Nc2ncnn3ccc(CN4CC[C@@H](N)[C@@H](O)C4)c23)c1,bioavailability,[4],29.7%
same,bioavailability,[5],29.7%
same,bioavailability,[6],29.7%
same,bioavailability,[7],8%
CCCC[C@H]1C(=O)N(C)[C@@H](CCCC)C(=O)N[C@@H](CC(C)C)C(=O)N[C@H](C(=O)NCC(N)=O)CSCC(=O)N[C@@H](Cc2ccc(O)cc2)C(=O)N(C)[C@@H](C)C(=O)N[C@@H](CC(N)=O)C(=O)N2CCC[C@H]2C(=O)N[C@@H](CN)C(=O)N[C@@H](CC(C)C)C(=O)N2C[C@H](O)C[C@H]2C(=O)N[C@@H](Cc2c[nH]c3ccccc23)C(=O)N[C@@H](CCN)C(=O)N[C@@H](Cc2cn(CC(=O)O)c3ccccc23)C(=O)N1C ({CH2CO}-Y[NMeA]NP[Dap]L[Hyp]W[Dab][Trp(1-CH2COOH)][NMeNle][NMeNle]LCG-NH2; thioether N-14),IC50,[8],0.00027 µM
O=C(O)c1ccc(-c2ccc(F)cc2)cc1/C=C/c1cccc(-c2ccccc2)c1,Ki,[1],1.4 µM
COc1cc2cc(C(=O)CCC(=O)O)sc2cc1OC,Kd,[9],18 µM
Oc1ccc(-c2ccccc2)cc1,Kd,[2],6000 µM
CN(C)CC[C@H](CSc1ccccc1)Nc1ccc(S(=O)(=O)NC(=O)c2ccc(N3CCN(Cc4ccccc4-c4ccc(Cl)cc4)CC3)cc2)cc1[N+](=O)[O-] [ABT 737],Ki,[10],< 0.001 µM
CCCC[C@H]1C(=O)N(C)[C@@H](CCCC)C(=O)N[C@@H](CCCNC(=N)N)C(=O)N[C@H](C(=O)NCC(N)=O)CSCC(=O)N[C@@H](Cc2ccccc2)C(=O)N(C)[C@@H](C)C(=O)N[C@@H](CC(N)=O)C(=O)N2CCC[C@H]2C(=O)N[C@@H](Cc2c[nH]cn2)C(=O)N[C@@H](CC(C)C)C(=O)N(C)CC(=O)N[C@@H](Cc2c[nH]c3ccccc23)C(=O)N[C@@H](CO)C(=O)N[C@@H](Cc2c[nH]c3ccccc23)C(=O)N1C ({CH2CO}-F[NMeA]NPHL[Sar]WSW[NMeNle][NMeNle]RCG-NH2; thioether N-14),IC50,[11],0.009 µM
same,IC50,[12],0.06 µM
